From patent publication US20260109727A1, “RNA CONSTRUCTS AND USES THEREOF” (BioNTech SE, priority 2022, published 2026)

Tests used:
human PBMCs = experiment: Cytokine/chemokine secretion in human PBMCs (MSD V-PLEX); type: cell-based
Method: Human buffy coats from healthy individuals were obtained from the Faculty of Medicine of Johannes Gutenberg University, Mainz and used to isolate peripheral blood mononuclear cells (PBMCs) on a Ficoll-Paque™ PLUS (Cytiva, Marlborough, MA, USA) density gradient. In preparation for mRNA transfection, cryopreserved PBMCs were thawed and seeded into 96-well plates at a density of 5×10^5 cells per well in 190 μL RPMI medium supplemented with 1% non-essential amino acids (NEAA), 1% sodium pyruvate and 10% Fetal Bovine Serum (Merck, Germany). Cells were maintained at 37° C. with 5% CO2 until transfection with 0.5, 1.5, 5.0 and 15 μg/ml lipoplex-formulated EPO mRNA (LPX-RNA), as described in Kranz, L. M., et al. (2016) Nature, 534, 396-401. The complexed RNA (10 μl per well) was added in triplicates and supernatants were collected at 24 h after transfection to perform single cell cytotoxicity assay and to measure the cytokine/chemokine profile. To determine the cell viability and the production of selected cytokines/chemokines, supernatants from human PBMCs transfected with LPX-RNA were subjected to XTT cytotoxicity test using Cell Proliferation Kit II (Sigma-Aldrich) and cytokine/chemokine profile analysis using the Meso Scale Discovery V-PLEX Custom Human Biomarkers Proinflammatory and Chemokine Panel (Meso Scale Diagnostics—MSD, Rockville, MD, USA) according to the manufacturer's instructions, respectively. In regards of cytokine/chemokine profile analysis, a sample dilution of 1:5 (supernatant:MSD diluent) was used in each experiment. The levels of IL-6 (Interleukin 6), TNF-α (Tumor necrosis factor alpha), IL-1 (Interleukin 1 beta), IFN-γ (Interferon gamma), MCP-1 (Monocyte Chemoattractant Protein-1), […] (Macrophage inflammatory protein 1 beta) and IL-10 (Interleukin 10) were quantified 24 h after the mRNA transfection. […] This low immunogenicity can be directly attributed to the nucleoside modifications incorporated into the mRNA. To illustrate this, cells treated with lipid-complexed U-containing mRNA capped with compound I′-1, CC114 and CC413 induced much higher proinflammatory cytokine/chemokine responses even at their lowest dose (0.5 μg/ml) when compared to m1Ψ-modified mRNA (FIG. 6).
To test the effect of the cap types and mRNA 5′end on immunogenicity in human peripheral blood monocyte cells (PBMCs) we compared changes in levels of cytokines and chemokines after application of Lipoplex (LPX)-formulated EPO mRNAs. First, we compared the impact of m1Ψ-mRNA capped with I′-6 containing a UAGU 5′end vs. CC413 (AGAAU 5′end) (FIG. 12). […] Second, we compared capped EPO uRNA with I′-6 or I′-1 (FIG. 14). In this case both mRNAs had the same TAGT 5′end. […] Thus, benefit of I′-6 in decreasing the immunogenicity and thus increasing safety was found when I′-6 was used.

[1] = system: human primary hepatocytes; experiment: EPO secretion in human primary hepatocytes transfected with TransIT-EPO mRNA (ELISA); type: cell-based
Method: To measure the translational efficiency of EPO mRNA capped with compound I′-1, compound I′-6, CC114, and CC413 in vitro, human primary hepatocytes were seeded into 96-well plates at a density of 2.5×10^4 cells per well and were transfected with mRNA samples (0.1 μg) complexed with TransIT reagent (Mirus Bio, Madison, WI, USA) in a final volume of 200 μL in InVitroGRO CP Medium (Sigma-Aldrich) supplemented with Thorpedo Antibiotic Mix (Sigma-Aldrich). To quantify EPO levels, the supernatant was collected at 1, 2, 3, 4, 5 and 6 day after transfection and EPO levels were analyzed by mouse Erythropoietin DuoSet ELISA kit (R&D Systems, Minneapolis, MN, USA) according to the manufacturer's instructions.
In each in vivo experiment in order to measure the translational efficiency and to determine the functionality of EPO mRNA capped with I′-1, I′-2, I′-3, I′-5, I′-6, I′-9, I′-12, I′-13, I′-16, CC114, and CC413 in vivo, female BALB/c mice from Jackson Laboratory (Bar Harbor, ME, USA) at the age of eight to ten weeks were used for in accordance with federal policies on animal research (Ethics approval number: G19-12-074). In each case, mice (n=3/group) were injected intravenously (i.v.) with 3 μg TransIT-complexed (Mirus Bio) EPO mRNAs in a final volume of 200 μL Dulbecco's modified Eagle medium (DMEM). Mice used as controls were injected with TransIT-reagent diluted in DMEM but without RNA. To measure hematocrits and EPO levels in the individual mice that were injected with EPO mRNA capped with I′-6, I′-1, CC114, and CC413 and complexed with TransIT-reagent, 18 μL of blood was collected at the indicated times (FIG. 8B) and centrifuged in Drummond microcaps glass capillary tubes (20 μl volume, Merck, Germany) as described (19). After determination of the hematocrit, capillary tubes were snapped open, and the plasma was collected to measure EPO levels and analyzed for mouse Erythropoietin DuoSet ELISA kit (R&D Systems) according to the manufacturer's instructions. […] EPO RNA containing m1Ψ modifications translated 2-3-fold, 5-fold, and 10-fold more than U-containing mRNAs at 6-24, 48 and 72 hours after injections, respectively. (FIG. 8A). […] To address translation of I′-6-capped mRNA in human primary hepatocytes, EPO level was measured from supernatants transfected using 0.1 μg/well TransIT-formulated I′-6- or CC114-capped uRNA (FIG. 13).
To test if various uridine (U) or pseudouridine (Ψ) derivatives of cap analogues can improve translation in human primary hepatocytes, we first measured EPO secretion after application of EPO-encoding Ψ-mRNA capped with compounds described herein analog bearing pseudouridine (I′-3) or CC413 (no modification). […] In addition, all tested modification bearing caps led to increase in EPO secretion at 24 h and 48 h when compared to the unmodified I′-1 (FIG. 16).

- cytokines (IL-6, TNF-α, IL-1β, IFN-γ), compared with I′-1 (human PBMCs; EPO uRNA, same TAGT 5′end, 24 h after application): significantly lower
- increase in levels of proinflammatory cytokines and chemokines, compared with CC413 (human PBMCs; LPX-formulated EPO mRNA, across the concentrations tested): less of an increase
- MIP-1β, compared with CC413 (human PBMCs; LPX-m1Ψ-mRNA, 0.333 and 1 μg/well (1.7 and 5 μg/ml)): decrease
- cytokines (IL-6, TNF-α, IL-1, IFN-γ), compared with CC413 (human PBMCs; LPX-m1Ψ-mRNA, 1 and 3 μg/well (5 and 15 μg/ml)): significant decrease
SMILES: COC1C(OP(=O)(O)OC[C@H]2O[C@@H](c3cn(C)c(=O)[nH]c3=O)C(O)C2O)[C@@H](COP(=O)(O)OP(=O)([O-])OP(=O)(O)OC[C@H]2O[C@@H](n3c[n+](C)c4c(O)nc(N)nc43)C(O)C2OC)O[C@H]1n1cnc2c(N)ncnc21 (some centres unmarked) [I′-6, m^7G(^3′-OMe)pppA(2′-OMe)pm^1Ψ]
- translation (EPO secretion) compared to CC413 ([1]; 0.1 μg/well TransIT-EPO mRNA, 24 hrs): higher translation
- EPO secretion, I′-6- vs CC114-capped uRNA ([1]; 0.1 μg/well TransIT-formulated uRNA, 24 h, 48 h and 144 h): Increased secretion of EPO
- level of secreted EPO compared to other caps (I′-9, I′-12, I′-16) ([1]; 24 h): increased level
- translation compared to CC413 ([1]; m1Ψ-mRNA context): lower translation at later time points but in close to comparable translation
